Measured values published in patent US10035790B2, “RORγ modulators” (BRISTOL-MYERS SQUIBB COMPANY, priority 2012, dated 2018).

Molecular target: T1, ligand binding domain of human RORγ (A262-S507) (Homo sapiens, UniProt P51449)
T1 construct: made in house; host or cells: E. coli
T1 sequence (P51449 262-507): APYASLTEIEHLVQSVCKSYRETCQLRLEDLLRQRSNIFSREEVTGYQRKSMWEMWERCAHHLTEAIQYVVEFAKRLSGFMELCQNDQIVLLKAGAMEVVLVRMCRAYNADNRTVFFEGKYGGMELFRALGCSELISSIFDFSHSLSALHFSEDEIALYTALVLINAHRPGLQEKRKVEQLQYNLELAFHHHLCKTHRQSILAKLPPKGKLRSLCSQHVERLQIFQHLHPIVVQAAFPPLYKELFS
Experiment: General RORγ SPA binding assay (competition with [3H]25-hydroxycholesterol)
Details: RORγ SPA binding assay, inhibition of [3H]25-hydroxycholesterol binding; read-out: IC50
Protocol: Example 2 General RORγ SPA Binding Assay
The binding of potential ligands to RORγ is measured by competition with [^3H]25-hydroxycholesterol using a scintillation proximity assay (SPA) binding assay. The ligand binding domain of human RORγ (A262-S507) with an N-terminal His tag is expressed in E. coli and purified using nickel affinity chromotography. 50 nM RORγ (A262-S507) is incubated with test compound at varying concentrations for 15 min at room temperature in PBS buffer containing 0.5% fatty acid free BSA. […] of [^3H]25-hydroxycholesterol is then added, and the reaction is incubated for 15 min. 4 mg/mL of Ysi Copper HIS-TAG SPA Beads (Perkin Elmer) are added, and the mixture is incubated for 30 min. The reaction is read on a MicroBeta Trilux scintillation plate reader (Perkin Elmer). IC50 values are determined from the percentage inhibition of [^3H]25-hydroxycholesterol binding.

Point of comparison: `O=C(NCc1ccc(Cl)c(Cl)c1)c1cncnc1C1CCN(C(=O)Cc2c(F)cccc2Cl)CC1` [Compound A6, 4-(1-(2-(2-chloro-6-fluorophenyl)acetyl)piperidin-4-yl)-N-(3,4-dichlorobenzyl)pyrimidine-5-carboxamide], IC50 26.4 nM. Against it:
- Cc1nc(C2CCN(C(=O)Cc3c(F)cccc3F)CC2)c(C(=O)NCc2ccnc(C(F)(F)F)c2)c(=O)[nH]1 [Compound I5, 4-(1-(2-(2,6-difluorophenyl)acetyl)piperidin-4-yl)-2-methyl-6-oxo-N-((2-(trifluoromethyl)pyridin-4-yl)methyl)-1,6-dihydropyrimidine-5-carboxamide] — 2.6-fold higher, 69.3 nM
- COc1ncc(C(=O)NCc2cccc(Cl)c2)c(C2CCN(C(=O)Cc3c(F)cccc3F)CC2)n1 [Compound A92, N-(3-chlorobenzyl)-4-(1-(2-(2,6-difluorophenyl)acetyl)piperidin-4-yl)-2-methoxypyrimidine-5-carboxamide] — 2.6-fold lower, 10 nM
- Cc1nc(C)c(-c2nnc(-c3ccnc(C(F)(F)F)n3)o2)c(C2CCN(C(=O)Nc3ccccc3OC(F)(F)F)CC2)n1 [Compound C32, 4-(2,6-dimethyl-5-{5-[2-(trifluoromethyl)pyrimidin-4-yl]-1,3,4-oxadiazol-2-yl}pyrimidin-4-yl)-N-{2-[(trifluoromethyl)oxy]phenyl}piperidine-1-carboxamide] — 6-fold higher, 159 nM
- Nc1ncc(C(O)CNc2ccnc(C(F)(F)F)n2)c(C2CCN(C(=O)Nc3c(F)cccc3F)CC2)n1 (stereo not drawn) [Compound N12, 4-[2-amino-5-(1-hydroxy-2-{[2-(trifluoromethyl)pyrimidin-4-yl]amino}ethyl)pyrimidin-4-yl]-N-(2,6-difluorophenyl)piperidine-1-carboxamide] — 2.6-fold higher, 69.5 nM
- C/C(=N\Oc1cc(Cl)nc(C(F)(F)F)c1)c1cnc(C)nc1C1CCN(C(=O)Nc2c(F)cccc2F)CC1 [Compound B40, 4-{5-[(1E)-N-{[2-chloro-6-(trifluoromethyl)pyridin-4-yl]oxy}ethanimidoyl]-2-methylpyrimidin-4-yl}-N-(2,6-difluorophenyl)piperidine-1-carboxamide] — within 1.5-fold, 21.4 nM
- Cc1nc(N)nc(C2CCN(C(=O)Oc3ccc(F)cc3F)CC2)c1-c1nnc(-c2ccnc(C(F)(F)F)n2)o1 [Compound C56, 2,4-Difluorophenyl 4-(2-amino-6-methyl-5-{5-[2-(trifluoromethyl)pyrimidin-4-yl]-1,3,4-oxadiazol-2-yl}pyrimidin-4-yl)piperidine-1-carboxylate] — within 1.5-fold, 24.7 nM
- Cc1cc(C)cc(CNC(=O)c2cnc(C)nc2C2CCN(C(=O)C(F)(F)c3ccccc3)CC2)c1 [Compound A117, 4-{1-[Difluoro(phenyl)acetyl]piperidin-4-yl}-N-[(3,5-dimethylphenyl)methyl]-2-methylpyrimidine-5-carboxamide] — 9.6-fold higher, 253 nM
- O=C(NCc1ccc(Cl)c(Cl)c1)c1cnc(-c2ccccc2)nc1C1CCN(C(=O)Cc2c(F)cccc2F)CC1 [Compound A37, N-(3,4-dichlorobenzyl)-4-(1-(2-(2,6-difluorophenyl)acetyl)piperidin-4-yl)-2-phenylpyrimidine-5-carboxamide] — 160-fold higher, 4200 nM
- Cc1nc(N)nc(C2CCN(C(=O)Nc3c(F)cccc3C(F)(F)F)CC2)c1-c1nnc(-c2ccnc(C(F)(F)F)n2)o1 [Compound C49, 4-(2-Amino-6-methyl-5-{5-[2-(trifluoromethyl)pyrimidin-4-yl]-1,3,4-oxadiazol-2-yl}pyrimidin-4-yl)-N-[2-fluoro-6-(trifluoromethyl)phenyl]piperidine-1-carboxamide] — within 1.5-fold, 23.3 nM
- O=C(NCc1cccc(Cl)c1)c1cnc(C2CC2)nc1C1CCN(C(=O)Cc2c(F)cccc2F)CC1 [Compound A45, N-(3-chlorobenzyl)-2-cyclopropyl-4-(1-(2-(2,6-difluorophenyl)acetyl)piperidin-4-yl)pyrimidine-5-carboxamide] — 4.4-fold lower, 6 nM
- Cc1cc(C)cc(CNC(=O)c2cnc(C)nc2C2CCN(C(=O)Cc3ccccc3)CC2)c1 [Compound A25, N-(3,5-dimethylbenzyl)-2-methyl-4-(1-(2-phenylacetyl)piperidin-4-yl) pyrimidine-5-carboxamide] — 10-fold higher, 267 nM
